Measured values reported in patent publication US4873334A, “4,7-dihydropyrazolo(3,4-b) pyridine derivatives” (Shionogi & Co., Ltd., priority 1982, dated 1989).

What was measured:
[1] = system: Spontaneously Hypertensive Rats; assay: Antihypertensive action, tail-cuff systolic pressure in unanaesthetized SHR after i.p. administration; format: in vivo, Spontaneously Hypertensive Rats (female); conditions: 3 mg/kg intraperitoneally
Protocol: Female Spontaneously Hypertensive Rats(hereinafter referred to as SHR) with 160 mmHg of systolic pressure were employed without anaesthetization. The systolic pressure was, after SHRs were kept warm at 50° C. for 2 to 3 minutes, bloodlessly measured by the tail-cuff method [Japan J. Pharmacol., 28, 617 (1978)] using a Physiograph and an Electrosphygmomanometer (DMP-4B, PE-300, Narco Biosystems, Inc., Houston). Each compound was intraperitoneally administered to SHR at a dose of 3 mg per kilogramm. Antihypertensive action is shown in a maximal decrease of blood pressure, i.e. a maximum difference between systolic pressures after and before the administration of the test compound; along with which the duration period is also shown.

[2] = system: heart (coronary perfusate flow); assay: Coronary vasodilating action, perfusion flow change in isolated Langendorff-perfused heart; set-up: species or system Guinea pigs
Protocol: (§1) Guinea pigs with 400-800g of body weight were hit strongly on their heads and the cartoid artery of each Guinea pigs was cut down in order to make them bloodless. The heart was isolated and perfused with at a constant pressure (50 cm H2 O) by the Langendorff method [Basic Pharmacology & Therapeutics, 9(4), 181 (1981)]. Krebs-Ringer bicarbonate solution (27° C.) containing 0.5% defibrinated blood was employed as a perfusate, into which a mixed gas of 95% oxygen and 5% carbon dioxide was continuously introduced. The flowing perfusate was led into a drop counter, and the changes of the flow i.e. increase and decrease are regarded as the respective indications for coronary vasodilation and vasoconstriction. The isomeric contraction of apex and the number of drops of the coronary perfusate were recorded on a Recticorder (RJG 3006, Nihon Koden) by way of an F-D Pick-up (SB-IT, Nihon Koden). […] Coronary vasodilating action is shown in changes of the quantiy of the perfusate, and systole inhibitory action is shown in those of inotropic tension.

[3] = system: heart (contraction of apex); assay: Systole inhibitory action / negative inotropic action, contractile tension of isolated Langendorff-perfused heart; set-up: species or system Guinea pigs
Protocol: as §1

in vivo = conditions: mouse, female DS mice, intravenous
Protocol: In female DS mice (body weight: about 20g), LD50 value after the intravenous administration of the compounds was calculated by the Brownlee's up and down method [J. Am. Sat. As., 48, 262 (1953)].

Row | Structure (SMILES) | Duration of Effect ([1]; Table 1 (Part 1)) [h] | Maximum Hypotension ([1]; Table 1 (Part 1)) [mmHg] | Perfusion Flow Change ([2]; 0.1 μg, Table 2 (Part 1)) | Perfusion Flow Change ([2]; 1 μg, Table 2 (Part 1)) | Perfusion Flow Change ([2]; 10 μg, Table 2 (Part 1)) | Change of Contractile Tension ([3]; 0.1 μg, Table 3 (Part 1)) [%] | Change of Contractile Tension ([3]; 1 μg, Table 3 (Part 1)) [%] | Change of Contractile Tension ([3]; 10 μg, Table 3 (Part 1)) [%] | LD50 (in vivo) [mg/kg] | Duration of Effect ([1]; Table 1 (Part 2)) [h] | Maximum decrease in systolic pressure ([1]; Table 1 (Part 2)) [mmHg] | Perfusion Flow Change ([2]; 0.1 μg, Table 1 (Part 2)) | Change of Contractile Tension ([3]; 0.1 μg, Table 1 (Part 2)) [%]
1 | COC(=O)C1=C(C)Nc2c(c(C3CCCC3)nn2C)C1c1cccc([N+](=O)[O-])c1 (centres unmarked) [(B-1), Methyl 3-cyclopentyl-1,6-dimethyl-4-(3-nitrophenyl)-4,7-dihydropyrazolo[3,4-b]pyridine-5-carboxylate] | 16 | 66 | +26% | +73% | +180% | 0 | 0 | 0 | 31.5 | – | – | – | –
2 | COC(=O)C1=C(C)NC(C)=C(C(=O)OC)C1c1ccccc1[N+](=O)[O-] [(A), Nifedipine, reference compound] | 6 | 45 | +38% | +100% | – | -15 | -57 | – | – | 6 | 45 | +38% | -15
3 | COCCOC(=O)C1=C(C)Nc2c(c(CC3CCCC3)nn2C)C1c1ccccc1[N+](=O)[O-] (centres unmarked) [(E), 2-Methoxyethyl 3-cyclopentylmethyl-1,6-dimethyl-4-(2-nitrophenyl)-4,7-dihydropyrazolo[3,4-b]pyridine-5-carboxylate] | – | – | – | – | – | – | – | – | – | 6 | 26 | +20% | 0
4 | COCCOC(=O)C1=C(C)Nc2c(c(C3CCCC3)nn2C)C1c1cccc([N+](=O)[O-])c1 (centres unmarked) [(C-2), 2-Methoxyethyl 3-cyclopentyl-1,6-dimethyl-4-(3-nitrophenyl)-4,7-dihydropyrazolo[3,4-b]pyridine-5-carboxylate] | – | – | – | – | – | – | – | – | – | 6 | 36 | +15% | 0
5 | CC1=C(C(=O)OCCc2ccccc2)C(c2ccccc2[N+](=O)[O-])c2c(C3CCCC3)nn(C)c2N1 (centres unmarked) [(K), Phenethyl 3-cyclopentyl-1,6-dimethyl-4-(2-nitrophenyl)-4,7-dihydropyrazolo[3,4-b]pyridine-5-carboxylate] | – | – | – | – | – | – | – | – | – | 6 | 75 | +63% | 0
6 | CC1=C(C(=O)OCC2CCCO2)C(c2ccccc2[N+](=O)[O-])c2c(C3CCCC3)nn(C)c2N1 (centres unmarked) [(H), 2-Tetrahydrofurylmethyl 3-cyclopentyl-1,6-dimethyl-4-(2-nitrophenyl)-4,7-dihydropyrazolo[3,4-b]pyridine-5-carboxylate] | – | – | – | – | – | – | – | – | – | – | 0 | +34% | 0
7 | CSCCOC(=O)C1=C(C)Nc2c(c(C3CCCC3)nn2C)C1c1ccccc1[N+](=O)[O-] (centres unmarked) [(J), 2-Methylthioethyl 3-cyclopentyl-1,6-dimethyl-4-(2-nitrophenyl)-4,7-dihydropyrazolo[3,4-b]pyridine-5-carboxylate] | – | – | – | – | – | – | – | – | – | 6 | 20 | +68% | 0
8 | CC1=C(C(=O)OCCCOC(C)C)C(c2ccccc2[N+](=O)[O-])c2c(C3CCCC3)nn(C)c2N1 (centres unmarked) [(F), 3-Isopropoxypropyl 3-cyclopentyl-1,6-dimethyl-4-(2-nitrophenyl)-4,7-dihydropyrazolo[3,4-b]pyridine-5-carboxylate] | – | – | – | – | – | – | – | – | – | 6 | 53 | +65% | 0
9 | CC1=C(C(=O)OCCOC2CCCC2)C(c2ccccc2[N+](=O)[O-])c2c(C3CCCC3)nn(C)c2N1 (centres unmarked) [(G), 2-Cyclopentyloxyethyl 3-cyclopentyl-1,6-dimethyl-4-(2-nitrophenyl)-4,7-dihydropyrazolo[3,4-b]pyridine-5-carboxylate] | – | – | – | – | – | – | – | – | – | 6 | 53 | +67% | 0
10 | COc1ccc(CCOC(=O)C2=C(C)Nc3c(c(C4CCCC4)nn3C)C2c2cccc([N+](=O)[O-])c2)cc1OC (centres unmarked) [(M), 3,4-Dimethoxyphenethyl 3-cyclopentyl-1,6-dimethyl-4-(3-nitrophenyl)-4,7-dihydropyrazolo[3,4-b]pyridine-5-carboxylate] | – | – | – | – | – | – | – | – | – | 6 | 86 | – | –
11 | COCCOC(=O)C1=C(C)Nc2c(c(C3CCCC3)nn2C)C1c1ccccc1[N+](=O)[O-] (centres unmarked) [(B-2), 2-Methoxyethyl 3-cyclopentyl-1,6-dimethyl-4-(2-nitrophenyl)-4,7-dihydropyrazolo[3,4-b]pyridine-5-carboxylate] | – | – | – | – | – | – | – | – | – | 6 | 45 | +28% | 0
12 | COCCOC(=O)C1=C(C)Nc2c(c(C3CCCCC3)nn2C)C1c1ccccc1[N+](=O)[O-] (centres unmarked) [(D), 2-Methoxyethyl 3-cyclohexyl-1,6-dimethyl-4-(2-nitrophenyl)-4,7-dihydropyrazolo[3,4-b]pyridine-5-carboxylate] | – | – | – | – | – | – | – | – | – | 6 | 65 | +32% | 0
13 | CCOC(=O)C1=C(C)Nc2c(c(C3CCCC3)nn2C)C1c1cccc([N+](=O)[O-])c1.Cl (centres unmarked) [(C-1), Ethyl 3-cyclopentyl-1,6-dimethyl-4-(3-nitrophenyl)-4,7-dihydropyrazolo[3,4-b]pyridine-5-carboxylate hydrochloride] | 14 | 42 | +40% | +79% | +93% | 0 | 0 | 0 | 50.6 | – | – | – | –
14 | CC1=C(C(=O)OCCOc2ccccc2)C(c2ccccc2[N+](=O)[O-])c2c(C3CCCC3)nn(C)c2N1 (centres unmarked) [(I), 2-Phenoxyethyl 3-cyclopentyl-1,6-dimethyl-4-(2-nitrophenyl)-4,7-dihydropyrazolo[3,4-b]pyridine-5-carboxylate] | – | – | – | – | – | – | – | – | – | 6 | 74 | +43% | 0
15 | CC1=C(C(=O)OCCc2ccc(Cl)cc2)C(c2cccc([N+](=O)[O-])c2)c2c(C3CCCC3)nn(C)c2N1 (centres unmarked) [(L), 4-Chlorophenethyl 3-cyclopentyl-1,6-dimethyl-4-(3-nitrophenyl)-4,7-dihydropyrazolo[3,4-b]pyridine-5-carboxylate] | – | – | – | – | – | – | – | – | – | 6 | 74 | – | –
